Test results from ChEMBL document CHEMBL3885881, “DrugMatrix”.

Species: Rattus norvegicus
Experiment: DrugMatrix - Regimen: Daily Repeat
Type: toxicity, organism-based, Sprague-Dawley
Design: regimen Daily Repeat, gender Male, age 6-8 weeks
Settings: in vivo, po, route oral GAVAGE, vehicle 100 % WATER; for ABSOLUTE BASOPHIL / ABSOLUTE EOSINOPHIL / ABSOLUTE LYMPHOCYTE / ABSOLUTE MONOCYTE / ABSOLUTE SEGMENTED NEUTROPHIL / BASOPHIL / EOSINOPHIL / ERYTHROCYTE COUNT / HEMATOCRIT / HEMOGLOBIN / LEUKOCYTE COUNT / LYMPHOCYTE / MEAN CORPUSCULAR HEMOGLOBIN / MEAN CORPUSCULAR HEMOGLOBIN CONCENTRATION / MEAN CORPUSCULAR VOLUME / MONOCYTE / NEUTROPHIL / NUCLEATED RED BLOOD CELLS / PLATELET COUNT: tissue Blood; for ALANINE AMINOTRANSFERASE / ALBUMIN / ALKALINE PHOSPHATASE / ASPARTATE AMINOTRANSFERASE / BLOOD UREA NITROGEN / CARBON DIOXIDE / CHLORIDE / CHOLESTEROL / CREATINE PHOSPHOKINASE / CREATININE / GLUCOSE / LACTATE DEHYDROGENASE / LIPASE / PHOSPHORUS / POTASSIUM / SODIUM / TOTAL BILIRUBIN / TOTAL PROTEIN / URIC ACID: tissue Plasma
[1] = 0 mg/kg, 72 h, dose level Control, time 3 day
[2] = 0 mg/kg, 120 h, dose level Control, time 5 day
[3] = 900 mg/kg, 72 h, dose level Low, time 3 day

## Clc1ccc(C(c2ccccc2Cl)C(Cl)Cl)cc1 (centres undefined) [MITOTANE]
[1]
  ABSOLUTE BASOPHIL: 0 CELLS/uL
  ABSOLUTE EOSINOPHIL: 58.83 CELLS/uL
  ABSOLUTE LYMPHOCYTE: 11823.5 CELLS/uL
  ABSOLUTE MONOCYTE: 169 CELLS/uL
  ABSOLUTE SEGMENTED NEUTROPHIL: 815.33 CELLS/uL
  BASOPHIL: 0%
  EOSINOPHIL: 0.5%
  ERYTHROCYTE COUNT: 5.52 x10E6/uL
  HEMATOCRIT: 35.77%
  HEMOGLOBIN: 14.28 G/DL
  LEUKOCYTE COUNT: 12.87 x10E3/uL
  LYMPHOCYTE: 91.67%
  MEAN CORPUSCULAR HEMOGLOBIN: 25.92 pg
  MEAN CORPUSCULAR HEMOGLOBIN CONCENTRATION: 39.95 G/DL
  MEAN CORPUSCULAR VOLUME: 64.85 fL
  MONOCYTE: 1.33%
  NEUTROPHIL: 6.5%
  NUCLEATED RED BLOOD CELLS: 0 /100WBC
  PLATELET COUNT: 1246.17 x10E3/uL
  ALANINE AMINOTRANSFERASE: 66 u/L
  ALBUMIN: 4.25 G/DL
  ALKALINE PHOSPHATASE: 416 u/L
  ASPARTATE AMINOTRANSFERASE: 106.17 u/L
  BLOOD UREA NITROGEN: 12.67 mg/dL
  CARBON DIOXIDE: 31.83 mmol/L
  CHLORIDE: 102.5 MEQ/L
  CHOLESTEROL: 69 mg/dL
  CREATINE PHOSPHOKINASE: 601.83 u/L
  CREATININE: 0.18 mg/dL
  GLUCOSE: 154.5 mg/dL
  LACTATE DEHYDROGENASE: 301.83 u/L
  LIPASE: 11.17 u/L
  PHOSPHORUS: 12.08 mg/dL
  POTASSIUM: 6.12 MEQ/L
  SODIUM: 145.2 MEQ/L
  TOTAL BILIRUBIN: 0.17 mg/dL
  TOTAL PROTEIN: 6.1 G/DL
  URIC ACID: 1.57 mg/dL
[2]
  ABSOLUTE BASOPHIL: 0 CELLS/uL
  ABSOLUTE EOSINOPHIL: 19.33 CELLS/uL
  ABSOLUTE LYMPHOCYTE: 12577.83 CELLS/uL
  ABSOLUTE MONOCYTE: 106.33 CELLS/uL
  ABSOLUTE SEGMENTED NEUTROPHIL: 896.5 CELLS/uL
  BASOPHIL: 0%
  EOSINOPHIL: 0.17%
  ERYTHROCYTE COUNT: 5.84 x10E6/uL
  HEMATOCRIT: 36.88%
  HEMOGLOBIN: 14.48 G/DL
  LEUKOCYTE COUNT: 13.6 x10E3/uL
  LYMPHOCYTE: 92.17%
  MEAN CORPUSCULAR HEMOGLOBIN: 24.85 pg
  MEAN CORPUSCULAR HEMOGLOBIN CONCENTRATION: 39.3 G/DL
  MEAN CORPUSCULAR VOLUME: 63.23 fL
  MONOCYTE: 0.83%
  NEUTROPHIL: 6.83%
  NUCLEATED RED BLOOD CELLS: 0 /100WBC
  PLATELET COUNT: 1223.5 x10E3/uL
  ALANINE AMINOTRANSFERASE: 55.33 u/L
  ALBUMIN: 4.08 G/DL
  ALKALINE PHOSPHATASE: 355.5 u/L
  ASPARTATE AMINOTRANSFERASE: 87.67 u/L
  BLOOD UREA NITROGEN: 15.33 mg/dL
  CARBON DIOXIDE: 33.83 mmol/L
  CHLORIDE: 99.67 MEQ/L
  CHOLESTEROL: 72.17 mg/dL
  CREATINE PHOSPHOKINASE: 268.33 u/L
  CREATININE: 0.15 mg/dL
  GLUCOSE: 152.5 mg/dL
  LACTATE DEHYDROGENASE: 212.67 u/L
  LIPASE: 10.83 u/L
  PHOSPHORUS: 11.65 mg/dL
  POTASSIUM: 6.73 MEQ/L
  SODIUM: 142.43 MEQ/L
  TOTAL BILIRUBIN: 0.23 mg/dL
  TOTAL PROTEIN: 6.07 G/DL
  URIC ACID: 1.7 mg/dL
[3]
  ABSOLUTE BASOPHIL: 0 CELLS/uL
  ABSOLUTE EOSINOPHIL: 0 CELLS/uL
  ABSOLUTE LYMPHOCYTE: 16524 CELLS/uL
  ABSOLUTE MONOCYTE: 175 CELLS/uL
  ABSOLUTE SEGMENTED NEUTROPHIL: 1001 CELLS/uL
  BASOPHIL: 0%
  EOSINOPHIL: 0%
  ERYTHROCYTE COUNT: 5.49 x10E6/uL
  HEMATOCRIT: 34.53%
  HEMOGLOBIN: 13.73 G/DL
  LEUKOCYTE COUNT: 17.7 x10E3/uL
  LYMPHOCYTE: 93.33%
  MEAN CORPUSCULAR HEMOGLOBIN: 25.03 pg
  MEAN CORPUSCULAR HEMOGLOBIN CONCENTRATION: 39.8 G/DL
  MEAN CORPUSCULAR VOLUME: 62.9 fL
  MONOCYTE: 1%
  NEUTROPHIL: 5.67%
  NUCLEATED RED BLOOD CELLS: 0 /100WBC
  PLATELET COUNT: 1289.67 x10E3/uL
  ALANINE AMINOTRANSFERASE: 54 u/L
  ALBUMIN: 4.23 G/DL
  ALKALINE PHOSPHATASE: 331.33 u/L
  ASPARTATE AMINOTRANSFERASE: 74.67 u/L
  BLOOD UREA NITROGEN: 13 mg/dL
  CARBON DIOXIDE: 33.67 mmol/L
  CHLORIDE: 101.67 MEQ/L
  CHOLESTEROL: 70.33 mg/dL
  CREATINE PHOSPHOKINASE: 271 u/L
  CREATININE: 0.45 mg/dL
  GLUCOSE: 144.67 mg/dL
  LACTATE DEHYDROGENASE: 135 u/L
  LIPASE: 12.67 u/L
  PHOSPHORUS: 12.8 mg/dL
  POTASSIUM: 6.89 MEQ/L
  SODIUM: 145.93 MEQ/L
  TOTAL BILIRUBIN: 0.1 mg/dL
  TOTAL PROTEIN: 6.03 G/DL
  URIC ACID: 1.6 mg/dL
